# Assays:
# [1] = tested on: Tobacco Budworm; assay: Insect toxicity bioassay, TBW; type: in vivo; conditions: 150 ppm
# Experimental: (§1) The compound to be evaluated was dissolved in an appropriate solvent, usually a mix of acetone, methanol, and water. Test solutions were made by serial dilution of a stock test solution with acetone, methanol, and water. Initial evaluations were made at one or more concentrations on one or more of the following insects:
# (§2) Feeding bioassays were conducted in bioassay trays containing insect diet. Treatments were made by applying 50 μL of test solution to the surface of the diet in each of 5 wells. After the test solution dried, each well was infested with a single neonate larva. The trays were held for six days and then the mortality rating was determined for each treatment.
# Some of the tobacco budworm tests were conducted as follows. A test solution containing 600 ppm was made by dissolving a compound of the invention in a 1:1 acetone:methanol solution, then adding water to give a 5:5:90 acetone:methanol:water solution, and finally a surfactant was added at an equivalent of 7.37 g of surfactant per 100 L of test solution (1 ounce of surfactant per 100 gallons of test solution). Appropriate dilutions were prepared in water from the 600 ppm solution. A detached cotton leaf, Gossypium hirsutum was placed on moistened filter paper in a Petri dish (100×20 mms). The leaf was sprayed with the test solution using a rotating turntable sprayer and allowed to dry. The dish was infested with 10 first instar larvae of the tobacco budworm and covered with the lid. If the larvae were alive two days after treatment, fresh untreated cotton leaves were added. All treatments were maintained at 23.9-26.7° C. (75-80° F.) under fluorescent light in a well-ventilated room. Percent mortality was determined at four days after treatment.
# [2] = tested on: Cabbage Looper; assay: Insect toxicity feeding bioassay, CL; type: in vivo; conditions: 150 ppm
# Experimental: as §1, §2
# [3] = biological target: T1, Bombyx mori EcR (VBE) (Bombyx mori, UniProt P49881); assay: Z3 assay: β-galactosidase reporter gene induction in HEK-293 clone Z3 (CVBE / 6XEcRE LacZ); type: cell-based; conditions: for Fold Induction Average, Z3 assay / fold induction at 33 µM: 33 μM ligand, 48 h, RLU relative to DMSO; for fold induction at 33 µM: HEK293, read-out: Fold Induction Average, Z3 assay
# T1 construct: expressed in transfected cells; host or cells: Human HEK-293 cells, retrovirally infected, clone Z3
# T1 sequence (P49881 86-606 limits assumed): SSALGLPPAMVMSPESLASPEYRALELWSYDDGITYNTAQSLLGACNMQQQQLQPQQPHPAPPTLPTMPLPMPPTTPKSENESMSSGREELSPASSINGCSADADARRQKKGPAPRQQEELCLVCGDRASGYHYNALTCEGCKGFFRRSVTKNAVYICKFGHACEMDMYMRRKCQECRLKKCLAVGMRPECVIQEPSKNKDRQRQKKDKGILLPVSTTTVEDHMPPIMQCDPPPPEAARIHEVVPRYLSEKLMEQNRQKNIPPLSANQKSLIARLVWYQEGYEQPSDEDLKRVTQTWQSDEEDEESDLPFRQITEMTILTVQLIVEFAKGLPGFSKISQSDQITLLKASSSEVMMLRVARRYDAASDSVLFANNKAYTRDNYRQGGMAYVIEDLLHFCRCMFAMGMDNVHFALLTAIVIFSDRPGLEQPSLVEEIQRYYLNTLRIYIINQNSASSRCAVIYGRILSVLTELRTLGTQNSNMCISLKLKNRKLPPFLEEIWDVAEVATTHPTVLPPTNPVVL
# T1 sequence (P19793 1-462 partner): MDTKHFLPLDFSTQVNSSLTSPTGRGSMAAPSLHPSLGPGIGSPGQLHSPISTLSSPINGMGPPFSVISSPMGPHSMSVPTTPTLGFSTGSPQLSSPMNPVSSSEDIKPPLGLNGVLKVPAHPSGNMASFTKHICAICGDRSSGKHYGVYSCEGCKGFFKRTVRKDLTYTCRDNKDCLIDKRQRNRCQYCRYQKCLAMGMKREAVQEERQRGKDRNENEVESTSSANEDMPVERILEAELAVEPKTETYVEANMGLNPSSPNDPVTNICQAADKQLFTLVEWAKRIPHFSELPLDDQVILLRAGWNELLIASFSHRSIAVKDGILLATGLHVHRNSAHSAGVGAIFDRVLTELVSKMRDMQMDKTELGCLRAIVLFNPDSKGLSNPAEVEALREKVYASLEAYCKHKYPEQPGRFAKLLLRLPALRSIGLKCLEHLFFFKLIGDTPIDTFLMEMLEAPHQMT
# Experimental: A synthetic ATG start codon was placed under the control of cytomegalovirus (CVBE) immediate early promoter and flanked by long terminal repeats (LTR). The reporter construct contained six copies of the ecdysone response element (EcRE) binding site placed upstream of LacZ and flanked on both sides with LTR sequences (6×EcRE).
# Dilution cloning was used to isolate individual clones. Clones were selected using 450 ug/mL G418 and 100 ng/mL puromycin. Individual clones were evaluated based on their response in the presence and absence of test ligands.
# Z3 cells were seeded into 96-well tissue culture plates at a concentration of 2.5×10^3 cells per well and incubated at 37° C. in 5% CO2 for twenty-four hours. Stock solutions of ligands were prepared in DMSO. […] The final concentration of DMSO was maintained at 0.03% in both controls and treatments.
# Reporter gene expression was evaluated 48 hours after treatment of cells, β-galactosidase activity was measured using Gal Screen™ bioluminescent reporter gene assay system from Tropix (GSY1000). Fold induction activities were calculated by dividing relative light units (“RLU”) in ligand treated cells with RLU in DMSO treated cells. Luminescence was detected at room temperature using a Dynex MLX microtiter plate luminometer.
# (§3) Each assay was conducted in two separate wells, and the two values were averaged. Fold inductions were calculated by dividing relative light units (“RLU”) in ligand treated cells with RLU in DMSO treated cells. EC50s were calculated from dose response data using a three-parameter logistic model.
# [4] = tested on: WFN (white fly); assay: Insect toxicity contact bioassay, WFN; type: in vivo; conditions: 150 ppm
# Experimental: as §1
# (§4) Contact bioassays (green peach aphid, two-spotted spider mite, white fly) were conducted by applying a solution of the test compound to the inside surface of a Petri dish. The solution was allowed to air-dry, then each dish was infested and the larvae from each treatment were transferred to a bioassay tray. The trays were held for one to seven days, and the mortality rating was determined for each treatment.
# [5] = tested on: Beet Armyworm; assay: Insect toxicity feeding bioassay, BAW; type: in vivo; conditions: 150 ppm
# Experimental: as §1, §2
# [6] = tested on: MTA (two-spotted spider mite); assay: Insect toxicity contact bioassay, MTA; type: in vivo; conditions: 150 ppm
# Experimental: as §1, §4
# [7] = biological target: T2, GAL4 DBD-CfEcR(DEF)/VP16AD-MmRXRE (Choristoneura fumiferana, UniProt O77240); assay: 13B3 assay: luciferase reporter gene induction in stable CHO clone 13B3; type: cell-based; conditions: for fold induction at 33.3 µM: 33/33.3 μM ligand, 48 h, RLU relative to DMSO, read-out: Fold Induction Average, 13B3 assay
# T2 construct: The wild-type D, E, and F domains from spruce budworm Choristoneura fumiferana EcR (“CfEcR-DEF”)
# Experimental: CHO cells were transiently transfected with transcription cassettes for GAL4 DBD-CfEcR(DEF) and for VP16AD-MmRXRF controlled by SV40e promoters. Stably transfected cells were selected using Hygromycin. Individually isolated CHO cell clones were transiently transfected with a GAL4 RE-luciferase reporter (pFR-Luc, Stratagene, La Jolla, Calif.). The 13B3 clone was selected using Zeocin.
# (§5) Cells were trypsinized and diluted to a concentration of 2.5×10^4 cells mL. 100 μL of cell suspension was placed in each well of a 96 well plate and incubated at 37° C. under 5% CO2 for 24 h. Ligand stock solutions were prepared in DMSO and diluted 300 fold for all treatments.
# (§6) Luciferase reporter gene expression was measured 48 h after cell treatment using Bright-Glo™ Luciferase Assay System from Promega (E2650). Luminescence was detected at room temperature using a Dynex MLX microtiter plate luminometer.
# as §3
# [8] = biological target: T3, GAL4 DBD (1-147)-CfEcR(DEF)/VP16AD-βRXREF-LmUSPEF (Choristoneura fumiferana, UniProt O77240); assay: cell-based; conditions: for fold induction at 33.3 µM: 48 h, read-out: Fold Induction Average, 27-63 assay; for Rel Max FI, 27-63 assay: maximum fold induction relative to that of GS-E ligand
# T3 construct: The wild-type D, E, and F domains from spruce budworm Choristoneura fumiferana EcR (“CfEcR-DEF”)
# Experimental: Stably transfected cells were selected by Zeocin resistance. Individually isolated CHO cell clones were transiently transfected with a GAL4 RE-luciferase reporter (pFR Luc). 27-63 clone was selected using Hygromycin.
# as §5, §6, §3
# [9] = maximum fold induction relative to that of GS-E ligand
Structure (SMILES),"Insect Toxicity % control @ 150 ppm, TBW [1] [% @ 150]","Insect Toxicity % control @ 150 ppm, CL [2] [% @ 150]","Fold Induction Average, Z3 assay [3]","Insect Toxicity % control @ 150 ppm, WFN [4] [% @ 150]","Insect Toxicity % control @ 150 ppm, BAW [5] [% @ 150]","Insect Toxicity % control @ 150 ppm, MTA [6] [% @ 150]",fold induction at 33.3 µM [7],EC50 [8] [µM],fold induction at 33.3 µM [8],"Rel Max FI, 27-63 assay [8]",fold induction at 33 µM [3],EC50 [7] [µM],"Rel Max FI, 13B3 assay [7, 9]",EC50 [3] [µM],"Rel Max FI, Z3 assay [3, 9]"
CC1(C)ON=C(c2cccc(C(F)(F)F)c2)N1NC(=O)c1ccccc1 [RG-120015],0,0,0.8,0,80,0,–,–,–,–,–,–,–,–,–
CCc1c(OC)cccc1C(=O)NN1C(c2ccccc2OC)=NOC1(C)C [RG-120016],–,–,–,–,–,–,4.4,~20,1150,0.71,227,–,–,–,–
CC1(C)ON=C(c2cccc(C(F)(F)F)c2)N1NC(=O)Cc1ccccc1 [RG-120021],0,0,0.7,0,100,51,–,–,–,–,–,–,–,–,–
Cc1cc(C)cc(C2=NOC(C)(C)N2NC(=O)c2ccc(Cl)cc2)c1 [RG-120024],–,–,–,–,–,–,2.1,> 33,6.3,0,3.8,–,–,–,–
"COc1cccc(C(=O)NN2C(c3cc(C)cc(C)c3)=NOC23CCc2ccccc2C3)c1C (stereo not shown) [RG-120037, N-[3-(3,5-Dimethyl-phenyl)-1-oxa-2,4-diaza-spiro[4.5]-7,8-benzo-dec-2-en-4-yl]-3-methoxy-2-methyl-benzamide]",–,–,–,–,–,–,0.3,> 33,0.4,0,0.5,–,–,–,–
CCc1ccc(C(=O)NN2C(c3cc(C)cc(C)c3)=NOC23CCCC3)cc1 [RG-120040],–,–,–,–,–,–,174,~20,242,0.13,202,–,–,–,–
"COc1cccc(C(=O)NN2C(c3cc(C)cc(C)c3)=NOC2(C)C)c1C [RG-120045, N-[3-(3,5-Dimethyl-phenyl)-5,5-dimethyl-[1,2,4]oxadiazol-4-yl]-3-methoxy-2-methyl-benzamide]",–,–,–,–,–,–,1410,~20,2710,1.25,276,–,–,–,–
CCc1c(OC)cccc1C(=O)NN1C(c2cc(C)cc(C)c2)=NOC12CCCC2 [RG-120049],–,–,–,–,–,–,2660,3.42,2070,1.58,310,3.57,1.56,1.6,0.88

# From patent US8669072B2, “Oxadiazoline ligands for modulating the expression of exogenous genes via an ecdysone receptor complex” (Intrexon Corporation, priority 2003, dated 2014)
